Assay results: US20260235623A1, “EFFECT INDUCED BY A SODIUM-GLUCOSE COTRANSPORTER INHIBITOR (SGLTi) IN A SUBJECT SUFFERING FROM A CARDIOVASCULAR DISEASE” (Roche Diagnostics Operations, Inc., priority 2023, published 2026)
Like-named read-outs stand apart in the source and are kept apart here.

How the values were obtained:
FABP3/NT-proBNP = conditions: for median FABP3/NT-proBNP ratio: FABP3 in ng/ml, NT-proBNP in pg/mL, baseline median ratio 0.026
Source text: (§1) A total of 100 patients with stable chronic HFrEF participating in a prospective registry at the heart failure outpatient clinic at the Medical University of Vienna, which has been imputed with all clinically relevant data, are included in the present study. The inclusion criteria of the registry are documented chronic HFrEF, an age of at least 18 years and stable heart failure related medical therapy in the last 3 months. Inclusion criteria for this study is the participation in the registry, and the absence of any exclusion criteria avoiding the prescription of SGLT-2 inhibitor (Dapagliflozin). Visits at the outpatient clinic are conducted at baseline (visit 0), at week 4 after SGLT-2 inhibitor therapy initiation (visit 1), after 3 month (visit 2), after 6 months (visit 3), and every 6 months thereafter.
(§2) Blood and urine samples are drawn from a peripheral vein and collected at baseline prior to administration of the SGLT-2 inhibitor and repeated at every regularly scheduled study-visit. Samples are used for (1.) routine laboratory analysis and (2.) biobank storage.
(§3) Blood for the biobank is immediately centrifuged and plasma samples are stored at-80° C. for future analysis. The plasma samples and urine samples are stored in the central “biobank” facility of the Department of Laboratory Medicine at the Medical University of Vienna.
(§4) FABP3 and additional cardiac biomarkers N-terminal B-type natriuretic peptide (NT-proBNP) and GDF-15 are measured in plasma using the Elecsys Systems (Roche Diagnostics, Mannheim, Germany).

GDF-15 = conditions: baseline median 2439.34
Source text: as §1, §2, §3, §4

FABP3 = conditions: for amount of FABP3 higher compared to baseline: 3 months (V2)
Source text: as §1, §2, §3, §4

FABP3/GDF-15 = conditions: for median FABP3/GDF-15 ratio: FABP3 in ng/ml, GDF-15 in pg/mL, baseline median ratio 0.017
Source text: as §1, §2, §3, §4

NT-proBNP = conditions: for median NT-proBNP concentration: baseline median 1396.30; for change of amount of NT-proBNP before and after initiation: before and after SGLT2i initiation
Source text: as §1, §2, §3, §4

[1] = after 6 months (V3), vs. baseline
[2] = V1: week 4 after SGLT2i therapy initiation

CCOc1ccc(Cc2cc([C@@H]3O[C@H](CO)[C@@H](O)[C@H](O)[C@H]3O)ccc2Cl)cc1 [SGLT2i, Dapagliflozin]
median FABP3/NT-proBNP ratio (FABP3/NT-proBNP; V1: week 4): 0.032 | median FABP3/NT-proBNP ratio (FABP3/NT-proBNP; V2: 3 months): 0.039 | median FABP3/NT-proBNP ratio (FABP3/NT-proBNP; V3: 6 months): 0.046 | median FABP3/NT-proBNP ratio (FABP3/NT-proBNP; V4: 12 months): 0.033 | peak of relative increase of FABP3/NT-proBNP ratio (FABP3/NT-proBNP; [1]): 77% | change of FABP3/NT-proBNP ratio after initiation (FABP3/NT-proBNP; over time after SGLT2i initiation): increases over time | median GDF-15 concentration (GDF-15; [2]): 2657.16 pg/mL | median GDF-15 concentration (GDF-15; V2: 3 months): 3036.18 pg/mL | median GDF-15 concentration (GDF-15; V3: 6 months): 2414.01 pg/mL | median GDF-15 concentration (GDF-15; V4: 12 months): 2039.85 pg/mL | relative increase of FABP3 concentration alone (FABP3; [1]): 19% | change in plasma concentration of FABP3 after therapy initiation (FABP3; chronic HFrEF patients): increase in plasma concentration of FABP3 | median FABP3 plasma concentration (FABP3; chronic HFrEF patients, V1: week 4 after SGLT2i therapy initiation, baseline median 37.82): 40.86 ng/mL | median FABP3 plasma concentration (FABP3; chronic HFrEF patients, V2: 3 months, baseline median 37.82): 45.14 ng/mL | median FABP3 plasma concentration (FABP3; chronic HFrEF patients, V3: 6 months, baseline median 37.82): 44.36 ng/mL | FABP3 plasma concentration (FABP3; chronic HFrEF patients, V4: 12 months, baseline median 37.82): 44.47 ng/mL | amount of FABP3 higher compared to baseline (FABP3; patient subgroup with high baseline FABP3 (above 37.8 ng/ml)): about 14% | amount of FABP3 higher compared to baseline (FABP3; patient subgroup with low baseline FABP3 (below 37.8 ng/ml)): about 27% | median FABP3 concentration (FABP3; patients with high baseline FABP3 (above 37.8 ng/ml), V1: week 4, baseline median 47.97): 53.56 ng/mL | median FABP3 concentration (FABP3; patients with high baseline FABP3 (above 37.8 ng/ml), V2: 3 months, baseline median 47.97): 54.73 ng/mL | median FABP3 concentration (FABP3; patients with high baseline FABP3 (above 37.8 ng/ml), V3: 6 months, baseline median 47.97): 54.51 ng/mL | FABP3 concentration (FABP3; patients with high baseline FABP3 (above 37.8 ng/ml), V4: 12 months, baseline median 47.97): 53.23 ng/mL | median FABP3 concentration (FABP3; patients with low baseline FABP3 (below 37.8 ng/mL), V1: week 4, baseline median 29.05): 31.41 ng/mL | median FABP3 concentration (FABP3; patients with low baseline FABP3 (below 37.8 ng/mL), V2: 3 months, baseline median 29.05): 38.86 ng/mL | median FABP3 concentration (FABP3; patients with low baseline FABP3 (below 37.8 ng/mL), V3: 6 months, baseline median 29.05): 36.41 ng/mL | FABP3 concentration (FABP3; patients with low baseline FABP3 (below 37.8 ng/mL), V4: 12 months, baseline median 29.05): 36.76 ng/mL | time for which the FABP3 increase is apparent (FABP3; under SGLTi treatment): ≥ 12 months | median FABP3/GDF-15 ratio (FABP3/GDF-15; V1: week 4): 0.016 | median FABP3/GDF-15 ratio (FABP3/GDF-15; V2: 3 months): 0.016 | median FABP3/GDF-15 ratio (FABP3/GDF-15; V3: 6 months): 0.016 | median FABP3/GDF-15 ratio (FABP3/GDF-15; V4: 12 months): 0.019 | change of FABP3/GDF-15 ratio after initiation (FABP3/GDF-15; after SGLT2i initiation): remains stable | peak of relative increase of FABP3/GDF-15 ratio (FABP3/GDF-15; at 12 months (V4), vs. baseline): 12% | median NT-proBNP concentration (NT-proBNP; [2]): 1115.68 pg/mL | median NT-proBNP concentration (NT-proBNP; V2: 3 months): 1191.95 pg/mL | median NT-proBNP concentration (NT-proBNP; V3: 6 months): 889.21 pg/mL | median NT-proBNP concentration (NT-proBNP; V4: 12 months): 1172.84 pg/mL | change of amount of NT-proBNP before and after initiation (NT-proBNP): does not correlate | change of amount of NT-proBNP before and after initiation (NT-proBNP; listed as SGLTi): does not significantly change
